Data: paper PMC10552892, “Ebselen oxide and derivatives are new allosteric HER2 inhibitors for HER2‐positive cancers” (Molecular Oncology, 2023)

Experiments:
[1] = biological target: T1, JMHER2/FERME interaction (biot-JMHER2 peptide and GST-FERME, N-terminal FERM domain of ezrin) (Homo sapiens, UniProt P04626); experiment: AlphaScreen competition of HER2 juxtamembrane peptide / ezrin FERM domain interaction; type: binding; settings: for Inhibition of HER2-FERME interaction, % / EC50: AlphaScreen, 20 h; for Inhibition of HER2-FERME interaction, %: compound 0–50 μM, biot-JMHER2 5 nM; for EC50: read-out: EC50, μM (inhibition of HER2-FERME interaction); for Competition with HER2/FERM interaction / binding affinity for JMHER2: compared to ebselen oxide
T1 construct: purchased Proteogenix
Protocol: Biotinylated peptide derived from HER2 cytosolic juxtamembrane region (JMHER2, […] ) has been synthesized by Proteogenix (Schiltigheim, France). The binding reaction was described previously. Briefly, white 384‐well Optiplates (PerkinElmer, Whalham, MA, USA) were used to prepare GST‐FERME and biotinylated peptide in a binding buffer (PBS, pH 7.4, 5 mM MgCl2, and 0.02% CHAPS). GST‐FERME was incubated with biotinylated‐HER2 for 30 min at room temperature. AlphaScreen® Streptavidin Donor beads (20 μg·mL^−1) and Glutathione AlphaLISA® Acceptor Beads (20 μg·mL^−1) were added to the wells for overnight incubation in the dark and at room temperature. Light signal was detected with the EnVision® multilabel plate reader (PerkinElmer).
Ebselen came out as an interesting hit. Ebselen is a synthetic organoselenium compound with the anti‐inflammatory and antioxidant property that has been evaluated in clinical trials for ischemic stroke and acute hearing loss. However, in vivo, ebselen rapidly reacts with peroxynitrite to form ebselen oxide. […] In addition, using surface plasmon resonance (SPR), we confirmed that both compounds could directly bind to JMHER2 (Fig. 1E,F). […] The slight decrease in HER2 expression was not significant. To examine whether HER2 inhibition by ebselen oxide was dependent on JMHER2/FERME interaction, we transfected HBMEC cells with a previously described glycoprotein D‐tagged HER2 form mutated on the critical amino acids involved in ERM binding (gD‐HER2‐EBM*).

HER2 (pY1248) in SKBR3 = biological target: T2, HER2 (pY1248) in SKBR3 (Homo sapiens, UniProt P04626); experiment: HER2 activation (pY1248-HER2) in SKBR3 cells, western/dot blot; type: cell-based; set-up: Inhibition of HER2 activation / HER2 inhibition, %: concentration or dose not given beside the values; settings: for Inhibition of HER2 activation/activity: HER2+ breast cancer cells (SKBR3 in Fig. S1); for HER2 inhibition, % / EC50: Table 1, HER2+ breast cancer cells (ebselen oxide value equals SKBR3 48 h); for EC50: read-out: EC50, μM (HER2 inhibition)
T2 construct: host or cells: SKBR3
T2 sequence (P04626 23-1255): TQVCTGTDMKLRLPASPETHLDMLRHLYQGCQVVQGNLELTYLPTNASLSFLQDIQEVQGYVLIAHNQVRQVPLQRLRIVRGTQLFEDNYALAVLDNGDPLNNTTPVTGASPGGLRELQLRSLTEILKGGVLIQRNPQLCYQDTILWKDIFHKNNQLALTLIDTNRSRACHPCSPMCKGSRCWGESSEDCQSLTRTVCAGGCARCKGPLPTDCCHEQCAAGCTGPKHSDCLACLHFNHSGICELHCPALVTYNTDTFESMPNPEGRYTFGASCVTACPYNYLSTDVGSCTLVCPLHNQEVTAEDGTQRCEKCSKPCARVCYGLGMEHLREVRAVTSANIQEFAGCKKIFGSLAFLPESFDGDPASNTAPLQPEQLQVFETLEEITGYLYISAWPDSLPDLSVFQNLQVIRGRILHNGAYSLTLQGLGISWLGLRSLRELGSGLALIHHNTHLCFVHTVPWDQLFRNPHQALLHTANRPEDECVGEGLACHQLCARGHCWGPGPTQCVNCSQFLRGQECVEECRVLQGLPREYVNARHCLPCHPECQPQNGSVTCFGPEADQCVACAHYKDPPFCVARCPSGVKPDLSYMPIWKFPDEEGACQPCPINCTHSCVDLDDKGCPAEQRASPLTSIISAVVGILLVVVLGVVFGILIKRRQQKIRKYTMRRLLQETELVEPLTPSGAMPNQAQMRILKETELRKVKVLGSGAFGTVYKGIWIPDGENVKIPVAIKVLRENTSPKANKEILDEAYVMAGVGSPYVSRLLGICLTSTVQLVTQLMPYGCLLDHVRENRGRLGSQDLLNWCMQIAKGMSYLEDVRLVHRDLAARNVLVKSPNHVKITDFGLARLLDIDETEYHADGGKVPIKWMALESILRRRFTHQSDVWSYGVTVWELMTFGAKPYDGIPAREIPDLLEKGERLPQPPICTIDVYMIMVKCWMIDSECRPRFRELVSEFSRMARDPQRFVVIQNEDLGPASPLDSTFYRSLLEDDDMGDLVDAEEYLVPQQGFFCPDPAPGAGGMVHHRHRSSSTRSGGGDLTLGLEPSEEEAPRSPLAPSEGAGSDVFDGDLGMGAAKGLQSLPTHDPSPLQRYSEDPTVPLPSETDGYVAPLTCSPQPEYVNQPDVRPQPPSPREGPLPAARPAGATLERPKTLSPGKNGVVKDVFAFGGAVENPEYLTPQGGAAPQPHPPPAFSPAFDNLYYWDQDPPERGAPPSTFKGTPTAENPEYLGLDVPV

[2] = system: HER2+ breast cancer cells; experiment: HER2-dependent (anchorage-dependent) proliferation, Table 1; type: cell-based, human
Excerpt: Given the promising effects of ebselen oxide, we then evaluated several structurally related compounds in order to define the structural determinants essential for HER2 binding and inhibition. […] These observations allowed us to define a pharmacophore of ebselen derivatives required for HER2 inhibition where atoms in position Y and R (shown in red in structure) can be modified as followed: Y is either a S or a Se=O and R is either H or Cl or Me but not OMe or CF3 (Table 1).

HER2 (pY1248) in NCI-N87 = biological target: T3, HER2 (pY1248) in NCI-N87 (Homo sapiens, UniProt P04626); experiment: HER2 activation in NCI-N87 gastric cancer cells, western blot; type: cell-based
T3 construct: host or cells: NCI-N87
T3 sequence (P04626 23-1255): as above
Protocol: (A-C) HER2-positive […] (SKBR3, A; NCI-N87, B; BT474, C) treated or not with Ebselen
indicated, were analyzed by western blot to evaluate HER2 activation status using antibodies directed
Proliferation was assessed by Incucyte during 4 days.

SKBR3 = experiment: Incucyte proliferation, single agents and combinations, SKBR3; type: cell-based; settings: Homo sapiens, SK-BR-3, 96 h; read-out: Reduction/inhibition of cell proliferation
Protocol: (§1) (A–C) Proliferation curves of HER2‐positive (SKBR3, A; BT474, B; NCI‐N87, C) cancer cell lines treated or not with ebselen oxide (10 μM), lapatinib (10–1000 nM), or combination of these agents, as indicated. Proliferation was assessed overtime by Incucyte during 4 days. Data are mean ± SD (n = 8–12) of a representative experiment out of 4 (A), 3 (B), or 2 (C) independent experiments. […] Proliferation was assessed by Incucyte during 4 days. […] Scale bars are […].

BT474 = experiment: Incucyte proliferation, single agents and combinations, BT474; type: cell-based; settings: Homo sapiens, BT-474, 96 h; read-out: Reduction/inhibition of cell proliferation
Protocol: as §1

NCI-N87 [3] = experiment: Incucyte proliferation, single agents and combinations, NCI-N87; type: cell-based; settings: Homo sapiens, NCI-N87, 96 h; read-out: Reduction/inhibition of cell proliferation
Protocol: as §1

NCI-N87 [4] = experiment: Anchorage-independent growth (spheroid assay, ULA plates), NCI-N87; type: cell-based, human; settings: ebselen oxide 10 μM, lapatinib 10 nM, trastuzumab 10 μg·mL−1, alone or combined
Protocol: 5.10^3 cells/24‐well were seeded in a complete medium in ULA plates (Corning® Costar® (Corning, NY, USA) C LS3473‐24EA) in the presence of indicated compounds. Spheroids were imaged 6–8 days later with a phase‐contrast microscope, and their areas were measured using IMAGEJ software.
Proliferation was assessed overtime by Incucyte during 4 days. Data are mean ± SD (n = 8–12) of a representative experiment out of 4 (A), 3 (B), or 2 (C) independent experiments. One‐way ANOVA followed by Sidak multiple comparison test, (*, compared with Vehicle; ° and #, respectively, compared with lapatinib 10 and 1000 nM) ***P < 0.001, ****P < 0.0001. […] Proliferation was assessed by Incucyte during 4 days. Data are mean ± SD (n = 8–12) of a representative experiment out of two independent experiments. […] Images of a representative experiment out of 3 (G) or 4 (H) independent experiments and quantification of the colony total area are shown where data are mean ± SEM. One‐way ANOVA followed by multiple comparison test, *P < 0.05, **P < 0.01. Scale bars are 100 μM.

HER2 (pY1248) in SKOV3 = biological target: T4, HER2 (pY1248) in SKOV3 (Homo sapiens, UniProt P04626); experiment: HER2 activation in SKOV3 ovarian cancer cells, western blot; type: cell-based; settings: ebselen oxide 0–10 μM 24 h, AG1478 5 μM
T4 construct: host or cells: SKOV3
T4 sequence (P04626 23-1255): as above
Protocol: Human bone marrow endothelial cells (HBMECs) kindly provided by Dr. B. Weksler (Weill Medical College of Cornell University, NY) were cultured as described previously. The human breast cancer cell lines [SKBR3 (RRID:CVCL_0033), BT474 (RRID:CVCL_0179), and MDA‐MB‐231 (RRID:CVCL_0062)], the human gastric [NCI‐87 (RRID:CVCL_1603)] and ovarian [SKOV3 (RRID:CVCL_0532)] cancer cell lines were obtained from the American Type Culture Collection (Manassas, VA) and were maintained in DMEM containing 10% FBS. All cell lines were cultured under 5% CO2 at 37 °C. HBMECs were transfected using Amaxa Inc nucleofector system (Kit V and U015 program). […]
Fig. 3 Ebselen oxide inhibits HER2 activation and HER2‐dependent proliferation in gastric and ovarian HER2^+ cancer cells. (A) HER2‐positive NCI‐87 gastric cancer cells were treated with ebselen oxide (0–20 μM) for 24 h, lysed, and analyzed by western blot using anti‐pY1248‐HER2, HER2, and β‐tubulin antibodies. […] (B) HER2‐positive SKOV3 ovarian cancer cells were treated with ebselen oxide (0–10 μM) for 24 h, lysed, and analyzed by western blot using anti‐pY1248‐HER2, HER2, and ezrin antibodies. […] (C, D) Proliferation curves of NCI‐N87 gastric (C) or SKOV3 ovarian (D) cancer cells treated with vehicle or 7–10 μM ebselen oxide measured by MTT assay. […]

NCI-N87 [5] = experiment: Proliferation of NCI-N87 cells; type: cell-based, human; settings: ebselen oxide 7–10 μM, AG1478 5 μM
Protocol: Fig. 3 Ebselen oxide inhibits HER2 activation and HER2‐dependent proliferation in gastric and ovarian HER2^+ cancer cells. (A) HER2‐positive NCI‐87 gastric cancer cells were treated with ebselen oxide (0–20 μM) for 24 h, lysed, and analyzed by western blot using anti‐pY1248‐HER2, HER2, and β‐tubulin antibodies. A representative western blot is shown out of 4 independent experiments. (B) HER2‐positive SKOV3 ovarian cancer cells were treated with ebselen oxide (0–10 μM) for 24 h, lysed, and analyzed by western blot using anti‐pY1248‐HER2, HER2, and ezrin antibodies. A western blot is shown (n = 1). (C, D) Proliferation curves of NCI‐N87 gastric (C) or SKOV3 ovarian (D) cancer cells treated with vehicle or 7–10 μM ebselen oxide measured by MTT assay. Data are mean ± SEM (n = 9–12) of three independent experiments.
Supplementary figure 4: NCI-N87 and SKOV3 cancer cell lines are addicted to the HER2 pathway
(A) NCI-N87 cells were treated (+) or not (-) with a non-specific HER2 inhibitor AG1478 (5 µM). Whole cell lysates were analyzed by western blot with pY1248 HER2, HER2 and pERK antibodies.
(B) SKOV3 cells were treated (+) or not (-) with a non-specific HER2 inhibitor AG1478 (5 µM). Whole cell lysates were analyzed by western blot with pY1248 HER2, HER2, pERK or beta-tubulin antibodies.
(C) Proliferation curves of NCI-N87 treated or not with AG1478 (5 µM). Data are mean ± sem (n=4-6). 2- […]

SKOV3 = experiment: Proliferation of SKOV3 cells; type: cell-based, human; settings: ebselen oxide 7–10 μM, AG1478 5 μM

SMILES | Inhibition of HER2-FERME interaction, % [1] [%] | EC50 [1] [µM] | Competition with HER2/FERM interaction / binding affinity for JMHER2 [1] | Inhibition of HER2 activation/activity (HER2 (pY1248) in SKBR3) | HER2 inhibition, % (HER2 (pY1248) in SKBR3) [%] | EC50 (HER2 (pY1248) in SKBR3) [µM] | Effect on proliferation of HER2+ breast cancer cells [2] | further results
O=c1c2ccccc2sn1-c1ccc(Cl)cc1 [Analog 2, 2‐(4‐chlorophenyl)‐1,2‐benzisothiazol‐3(2H)‐one] | 40.4 | 1.08 | competed | inhibited | 75.4 | 41.7 | reduced | –
CC(C)c1ccc(N2Cc3ccccc3C2=O)cc1 [Analog 5, 2‐(4‐isopropyl phenyl)‐1‐isoindolinone] | 49.0 | 0.255 | greater binding affinity | no or low inhibition | 16.3 | 2 | no or low inhibition | –
Cc1ccc(-n2c(=O)c3ccccc3[s+]2[O-])cc1 (stereo not drawn) [Analog 6, 2‐(4‐Methylphenyl)‐1‐oxo‐1,2‐benzothiazol‐3‐one] | 43.6 | 2.53 | – | no or low inhibition | 0.2 | – | no or low inhibition | –
Cc1ccc(-n2sc3ccccc3c2=O)cc1 [Analog 1, 2‐(4‐methylphenyl)‐1,2‐benzisothiazol‐3(2H)‐one] | 45.0 | 0.716 | competed | inhibited | 65.0 | 39.8 | reduced | –
O=c1c2ccccc2[s+]([O-])n1-c1ccc(Cl)cc1 (stereo not drawn) [Analog 8, 2‐(4‐chlorophenyl)‐1‐oxo‐1,2‐benzothiazol‐3‐one] | 100 | 95.1 | drastically reduced | – | – | – | – | –
O=C1c2ccccc2C(=O)N1c1ccccc1 [Analog 4, N‐phenylphtalimide] | 47.3 | 0.003 | greater binding affinity | no or low inhibition | 0.0 | – | no or low inhibition | –
CS(=O)(=O)CCNCc1ccc(-c2ccc3ncnc(Nc4ccc(OCc5cccc(F)c5)c(Cl)c4)c3c2)o1 [lapatinib, Lapatinib ditosylate, reference compound] | – | – | – | – | – | – | – | Effect on HER2 activation, single agents and combination (HER2 (pY1248) in SKBR3; SKBR3, ebselen oxide 10 μM, lapatinib 10 nM): partially decreased; Effect on HER2 activation, single agents and combination (HER2 (pY1248) in NCI-N87; ebselen oxide 10 μM, lapatinib 10 nM): partially decreased; inhibition at 0.01 µM (SKBR3): 39%; inhibition at 0.01 µM (BT474): 18%; inhibition at 0.01 µM (NCI-N87 [3]): 53%; Reduction of anchorage-independent growth (spheroid assay) (NCI-N87 [4]): 35%
O=c1c2ccccc2sn1-c1ccc(C(F)(F)F)cc1 [Analog 7, 2‐[4‐(trifluoromethyl)phenyl]‐1,2‐benzothiazol‐3‐one] | 100 | 97 | drastically reduced | – | – | – | – | –
COc1cc2ncnc(Nc3cccc(Cl)c3)c2cc1OC [AG1478, Tyrphostin AG1478, reference compound] | – | – | – | – | – | – | – | Effect on HER2 activation (HER2 (pY1248) in NCI-N87; ebselen oxide 0–20 μM 24 h, AG1478 5 μM): decrease; Effect on HER2 activation (HER2 (pY1248) in SKOV3): decrease; Effect on proliferation (NCI-N87 [5]): decrease; Effect on proliferation (SKOV3): decrease
